By IC50 is commonly meant the point on the concentration scale where inhibition reaches its midpoint.

Here are results for three compounds from article PMC9506480, “Synthesis and Evaluation of Antiproliferative Activity, Topoisomerase IIα Inhibition, DNA Binding and Non-Clinical Toxicity of New Acridine–Thiosemicarbazone Derivatives” (Pharmaceuticals, 2022).

Structures are written as SMILES. Where two headings read alike, the source gives them in different places.

Test [1] concerns HCT116 (human colon carcinoma). As to the kind of experiment: Alamar blue cytotoxicity assay, HCT116. The class given is cell-based. The settings on record: HCT-116, 72 h incubation. Here is the method:
(§1) The in vitro cytotoxic activity of the compounds (Table 1) was evaluated against cancer cell lines HCT116 (human colon carcinoma), HepG2 (human hepatocellular carcinoma), B16F10 (murine melanoma carcinoma) and non-cancerous cell line MRC-5 (human lung fibroblast) using the Alamar blue assay after 72 h of incubation; doxorubicin (DOX) was used as a positive control. The unsubstituted derivatives on the acridine cores were encoded as CL, and the disubstituted derivatives as DL.
(§2) The human cancer cell lines HCT116 (colon carcinoma) and HepG2 (hepatocellular carcinoma), the mouse cancer cell line B16-F10 (melanoma), and the non-cancerous human cell line MRC-5 (lung fibroblast) were obtained from the American Type Culture Collection (ATCC, Manassas, VA, USA) and cultured according to the ATCC animal cell culture guide. All cell lines tested negative for mycoplasma using a mycoplasma stain kit.
(§3) Cell viability was measured using the Alamar blue assay, as previously described. Cells were seeded in 96-well plates for all experiments. The compounds were dissolved in dimethyl sulfoxide (DMSO, Sigma-Aldrich) and added to each well in eight serial concentrations ranging from 0.19 to 25 μg/mL. As a positive control, doxorubicin was used. After 72 h of treatment, 20 μL of resazurin (0.312 mg/mL) was added to each well. A SpectraMax 190 Micro-plate Reader was used to measure absorbances at 570 and 595 nm (Molecular Devices, Sunnyvale, CA, USA). Nonlinear regression with 95% confidence intervals (CI 95%) was used to calculate the inhibitory concentration of 50% (IC50) using GraphPad Prism software (Intuitive Software for Science; San Diego, CA, USA).
A general note: The colour change of resazurin is a common sign of viable cells or microbes.

Test [2] relates to HepG2 (human hepatocellular carcinoma). As to the kind of experiment: Alamar blue cytotoxicity assay, HepG2. In kind it is cell-based. Conditions: 72 h incubation. As for the experimental part: as §1, §2, §3
For a further test, the system named is CT DNA–EtBr. In words: Fluorescence competition with EtBr. The class given is binding, calf. Conditions: for Ksv (10^3) (M^−1): [EtBr] = 20 μmol L^−1, [DNA] = 100 μmol L^−1; for Quenching (%): [EtBr] = 20 μmol L^−1, [DNA] = 100 μmol L^−1, [compound] = 0–100 μmol L^−1. The source says:
EtBr is a weak fluorophore in an aqueous solvent, which has its fluorescence enhanced when it binds to DNA by the intercalative mode. The study of fluorescence quenching with EtBr is commonly used to assess the ability of compounds to interact with DNA by interfering with the fluorescence of the EtBr–DNA interaction (ESI, Figures S58 and S59). The EtBr–DNA complex in the presence and absence of CL-07 is shown in Figure 6, and the comparison of the quenching extent between studied compounds in terms of F/F0 vs. [compound] is illustrated in Figure 7.
The fluorescence titration results were analyzed using the Stern–Volmer equation [101], and the Ksv values of CT DNA–EtBr in the presence of the compounds calculated the slope of the graphs. The fluorescence spectra of the EtBr or CT DNA–EtBr compounds were obtained by excitation at 526 nm and scanning the emission from 530 to 650 nm. Solutions containing CT DNA–EtBr (20 μM:100 μM) were analyzed in the presence of several derivative concentrations (10, 20, 40, 60, 80 and 100 μM) in Tris-HCl buffer (0.1 M, pH 7.4) (ESI, Figures S58 and S59):F0/F = 1 + Ksv[Q] F0 and F represent the steady-state fluorescence intensities of CT DNA–EtBr in the absence and presence of the compounds, respectively. [Q] refers to the concentration of derivatives as a quencher. Ksv indicates the Stern–Volmer quenching constant.

For another test, the system named is K-562 cells. As to the kind of experiment: MTT cytotoxicity assay on leukemic cells, K562. The class given is cell-based. The settings on record: Homo sapiens. As for the experimental part: (§4) K562 (human erythroleukemic) and its multidrug-resistant counterpart, K562-Lucena 1, were obtained from the Tumor Immunology Laboratory (Federal University of Rio de Janeiro) (Rumjanek et al., 2001) and were cultured as recommended by Daflon-Yunes et al., 2013 [93, 106, 107].
(§5) CL-07, DL-01 and DL-08 compounds were evaluated for cell viability on K562 and K562-Lucena 1 cells using the colorimetric tetrazolium method (Mosmann, 1983). Cells were plated in 96-well plates. Compounds were dissolved in 1% (v/v) DMSO and RPMI-1640 medium (Sigma-Aldrich) in five serial concentrations from 1 to 50 µg/mL and were later added to each well and incubated for 72 h at 37 °C in a 5% CO2 humidified environment. As a positive control, 1 µM staurosporine was used. Then, the cells were treated with 20 µL of 5 mg/mL 3-(4,5-dimethylthiazol-2yl)-2,5-diphenyltetrazolium bromide solution (MTT solution in phosphate buffer solution) for 3 h. At the end of treatment, absorbances at 562 nm were measured using an iMark™ Microplate Absorbance Reader (iMark™, Hercules, CA, USA). Half-inhibitory concentration (IC50) was obtained by nonlinear regression with 95% confidence intervals (CI 95%) using GraphPad Prism software (Intuitive Software for Science; San Diego, CA, USA).
(In general: Tetrazolium dyes change colour on reduction, which living cells bring about.)

The test system of the next test is K562-Lucena 1. As to the kind of experiment: MTT cytotoxicity assay on resistant leukemic cells, K562-Lucena 1. In kind it is cell-based, human. The settings on record: for IC50: Homo sapiens, K562-Lucena 1, MTT, 72 h, multidrug-resistant. Here is the method: as §4, §5
Where [3] appears, read: MTT, 72 h, read-out: IC50 K-562.
Setting [4] is: range over both cell lines and both compounds, read-out: IC50 on leukemic cells (K-562 and K-562 Lucena 1).

On to `Oc1ccc(/C=N/NC(=S)Nc2c3ccccc3nc3ccccc23)cc1` [CL-07, (E)-N-(acridin-9-yl)-2-(4-hydroxybenzylidene)hydrazine-1-carbothioamide], for which the half-maximal inhibitory concentration (IC50) in test [1] is 39.7 µM; in test [2] it was 50.7 µM; with K-562 cells (setting [3]), 45.5 µM; in the test with K562-Lucena 1 it was 43.4 µM. In addition, the “Ksv (10^3) (M^−1)” value in the test on CT DNA–EtBr (Stern–Volmer constant) is 2.6 10^3 M^−1. Moreover, the Ksv in the test on CT DNA–EtBr (Stern–Volmer constant, abstract value) is 2600 M⁻¹. Further, in the test with CT DNA–EtBr, the “Quenching (%)” value turned out to be 21.71%.

Take `COc1ccc2nc3cc(Cl)ccc3c(NC(=S)N/N=C/c3ccccc3)c2c1` [DL-01, (E)-2-benzylidene-N-(6-chloro-2-methoxyacridin-9-yl)hydrazine-1-carbothioamide]: the 50% inhibitory concentration (IC50) was more than 60 µM in test [1]; 21.9 µM in test [2]; 11.5 µM with K-562 cells (setting [3]); 11.5 to 17.3 µM in the test on K-562 cells (setting [4]); 16.5 µM in the test on K562-Lucena 1. In addition, in the test with CT DNA–EtBr (Stern–Volmer constant), the “Ksv (10^3) (M^−1)” value is listed as 1.8 10^3 M^−1. Besides, in the test on CT DNA–EtBr, the “Quenching (%)” value is listed as 15.61%. Further, the “selectivity K562-Lucena 1 versus MRC-5” value with K562-Lucena 1 (more selective than MRC-5) is listed as 2 times.

Regarding `COc1ccc2nc3cc(Cl)ccc3c(NC(=S)N/N=C/c3cccc(O)c3)c2c1` [DL-08, (E)-N-(6-chloro-2-methoxyacridin-9-yl)-2-(3-hydroxybenzylidene)hydrazine-1-carbothioamide], the IC50 in test [1] was 24.2 µM; in test [2], 21.3 µM; with K-562 cells (setting [3]), 17.3 µM; in the test on K-562 cells (setting [4]), 11.5 to 17.3 µM; in the test on K562-Lucena 1, 17.1 µM. In addition, in the test with CT DNA–EtBr (Stern–Volmer constant), the “Ksv (10^3) (M^−1)” value was 2.5 10^3 M^−1. The “Quenching (%)” value in the test on CT DNA–EtBr is reported as 20.83%.
